Data reported in ChEMBL document CHEMBL1201862, “PubChem BioAssay data set” (2004).
Active and inactive are the calls of the source. Unless noted, the calls are words filed in the database; no cut-off is given here.

How the values were obtained:
[1] = biological target: T1, Sphingosine 1-phosphate receptor 4 (Homo sapiens, UniProt O95977); test: (§1) Late-stage fluorescence-based dose-response cell-based counterscreen assay to identify agonists of the Sphingosine 1-Phosphate Receptor 4 (S1P4): inhibition by S1P4-selective antagonist […].; format: functional
T1 sequence (O95977 whole entry): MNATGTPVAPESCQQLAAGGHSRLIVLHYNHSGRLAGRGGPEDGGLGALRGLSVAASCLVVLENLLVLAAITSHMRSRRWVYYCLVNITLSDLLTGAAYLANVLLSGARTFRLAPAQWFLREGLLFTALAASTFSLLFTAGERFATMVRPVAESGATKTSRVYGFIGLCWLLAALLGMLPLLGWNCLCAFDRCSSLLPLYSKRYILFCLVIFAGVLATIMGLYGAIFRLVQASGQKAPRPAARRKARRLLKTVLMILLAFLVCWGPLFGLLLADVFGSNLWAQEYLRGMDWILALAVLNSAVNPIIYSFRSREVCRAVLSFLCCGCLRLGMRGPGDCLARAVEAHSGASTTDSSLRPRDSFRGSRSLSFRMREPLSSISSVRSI

[2] = biological target: T2, Sphingosine 1-phosphate receptor 2 (Homo sapiens, UniProt O95136); test: activation of human S1P2 receptor – cell-based, fluorescence, set 2, counter-screen for S1P4 agonist project, late-stage follow-up (AID 504873); format: functional
[3] = biological target: T1, Sphingosine 1-phosphate receptor 4; test: Late-stage fluorescence dose-response cell-based counterscreen assay to identify agonists of the Sphingosine 1-Phosphate Receptor 4 (S1P4): Sphingosine 1-Phosphate Receptor 4 (S1P4) antagonist assay Set 2.; format: functional
[4] = biological target: Sphingosine 1-phosphate receptor 5 (Homo sapiens, UniProt Q9H228); test: Late-stage fluorescence-based dose-response cell-based counterscreen assay to identify agonists of the Sphingosine 1-Phosphate Receptor 4 (S1P4): Sphingosine 1-Phosphate Receptor 5 (S1P5) antagonist assay Set 2.; format: functional
[5] = biological target: T1, Sphingosine 1-phosphate receptor 4; test: Late-stage fluorescence-based dose-response cell-based counterscreen assay to identify agonists of the Sphingosine 1-Phosphate Receptor 4 (S1P4): inhibition by S1P4-selective antagonist control.; format: functional
[6] = biological target: T3, Sphingosine 1-phosphate receptor 1 (Homo sapiens, UniProt P21453); test: Late-stage fluorescence-based dose-response cell-based counterscreen assay to identify agonists of the Sphingosine 1-Phosphate Receptor 4 (S1P4): Sphingosine 1-Phosphate Receptor 1 (S1P1) agonist assay Set 2.; format: functional
[7] = biological target: T1, Sphingosine 1-phosphate receptor 4; test: Late-stage fluorescence-based dose-response cell-based counterscreen assay to identify agonists of the Sphingosine 1-Phosphate Receptor 4 (S1P4): inhibition by S1P4-selective antagonist 33 nM.; format: functional
[8] = biological target: T1, Sphingosine 1-phosphate receptor 4; test: Late-stage fluorescence-based dose-response cell-based counterscreen assay to identify agonists of the Sphingosine 1-Phosphate Receptor 4 (S1P4): inhibition by S1P4-selective antagonist 0.4 nM.; format: functional
[9] = biological target: T2, Sphingosine 1-phosphate receptor 2; test: Late-stage fluorescence-based dose-response cell-based counterscreen assay to identify agonists of the Sphingosine 1-Phosphate Receptor 4 (S1P4): Sphingosine 1-Phosphate Receptor 2 (S1P2) antagonist assay Set 2.; format: functional
[10] = cell viability after agonist treatment – luminescence, dose response, set 2, assay provider, cytotoxicity control for S1P4 agonist project, late-stage follow-up (AID 504875); format: functional
[11] = biological target: T3, Sphingosine 1-phosphate receptor 1; test: Late-stage fluorescence-based dose-response cell-based counterscreen assay to identify agonists of the Sphingosine 1-Phosphate Receptor 4 (S1P4): Sphingosine 1-Phosphate Receptor 1 (S1P1) antagonist assay.; format: functional
[12] = biological target: T1, Sphingosine 1-phosphate receptor 4; test: as §1; format: functional; remark: listed apart in the source
[13] = biological target: T1, Sphingosine 1-phosphate receptor 4; test: Late-stage fluorescence-based dose-response cell-based counterscreen assay to identify agonists of the Sphingosine 1-Phosphate Receptor 4 (S1P4): inhibition by S1P4-selective antagonist 100 nM.; format: functional
[14] = biological target: T1, Sphingosine 1-phosphate receptor 4; test: Late-stage fluorescence-based dose-response cell-based counterscreen assay to identify agonists of the Sphingosine 1-Phosphate Receptor 4 (S1P4): inhibition by S1P4-selective antagonist 11 nM.; format: functional
[15] = biological target: T4, Sphingosine 1-phosphate receptor 3 (Homo sapiens, UniProt Q99500); test: Late-stage fluorescence-based dose-response cell-based counterscreen assay to identify agonists of the Sphingosine 1-Phosphate Receptor 4 (S1P4): Sphingosine 1-Phosphate Receptor 3 (S1P3) antagonist assay Set 2.; format: functional
[16] = biological target: T4, Sphingosine 1-phosphate receptor 3; test: Late-stage fluorescence-based dose-response cell-based counterscreen assay to identify agonists of the Sphingosine 1-Phosphate Receptor 4 (S1P4): Sphingosine 1-Phosphate Receptor 3 (S1P3) agonist assay Set 2.; format: functional
[17] = HPDE-C7 pancreatic duct cell viability loss – fluorescence, HTS (AID 430); format: functional, cell-based; conditions: Homo sapiens
[18] = viability loss of HPDE-C7K cells – cell-based, fluorescence, HTS, primary screen (AID 431); format: functional; conditions: Homo sapiens
[19] = biological target: T3, Sphingosine 1-phosphate receptor 1; format: functional
Fatty acid synthase [20] = biological target: T5, Fatty acid synthase (Homo sapiens, UniProt P49327); test: inhibition of human FAS-TE enzyme activity – biochemical, kinetic fluorescence intensity, dose response (AID 624326); format: functional;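 further: rate of fluorescence rise from hydrolysis of a fluorogenic O-methyl fluorescein ester substrate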
[21] = Luminescent dose response cell-based high throughput screening assay for inhibitors of the Janus kinase 2 mutant JAK2V617F. [Related pubchem assays: 1446 (Primary screen.), 1521 (Confirmation assay.), 1486 (Counter screen.)]; format: functional
[22] = biological target: T1, Sphingosine 1-phosphate receptor 4; test: Late stage fluorescence dose response cell-based screening assay for antagonists of the Sphingosine 1-Phosphate Receptor 4 (S1P4). [Related pubchem assays: 1524 (Confirmation screen (S1P4 antagonists).), 1510 (Primary screen (S1P4 antagonists).), 1853 (Summary AID (S1P4 antagonists).), 1692 (Dose response screen (S1P4 antagonists).)]; format: functional
Melanocortin receptor 4 = Melanocortin receptor 4 (Homo sapiens, UniProt P32245); test: inhibitors of MC4R cAMP signaling – cell-based, TR-FRET, biased antagonists, dose response (AID 602298); format: functional;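 further: antagonist potency against agonist-stimulated cAMP production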
[23] = biological target: T6, Replicative DNA helicase DnaB (Mycobacterium tuberculosis, UniProt P9WMR3); test: DnaB intein splicing inhibitors, dose response, biochemical, cell-free fluorescence (AID 449749); format: functional
T6 sequence (P9WMR3 whole entry): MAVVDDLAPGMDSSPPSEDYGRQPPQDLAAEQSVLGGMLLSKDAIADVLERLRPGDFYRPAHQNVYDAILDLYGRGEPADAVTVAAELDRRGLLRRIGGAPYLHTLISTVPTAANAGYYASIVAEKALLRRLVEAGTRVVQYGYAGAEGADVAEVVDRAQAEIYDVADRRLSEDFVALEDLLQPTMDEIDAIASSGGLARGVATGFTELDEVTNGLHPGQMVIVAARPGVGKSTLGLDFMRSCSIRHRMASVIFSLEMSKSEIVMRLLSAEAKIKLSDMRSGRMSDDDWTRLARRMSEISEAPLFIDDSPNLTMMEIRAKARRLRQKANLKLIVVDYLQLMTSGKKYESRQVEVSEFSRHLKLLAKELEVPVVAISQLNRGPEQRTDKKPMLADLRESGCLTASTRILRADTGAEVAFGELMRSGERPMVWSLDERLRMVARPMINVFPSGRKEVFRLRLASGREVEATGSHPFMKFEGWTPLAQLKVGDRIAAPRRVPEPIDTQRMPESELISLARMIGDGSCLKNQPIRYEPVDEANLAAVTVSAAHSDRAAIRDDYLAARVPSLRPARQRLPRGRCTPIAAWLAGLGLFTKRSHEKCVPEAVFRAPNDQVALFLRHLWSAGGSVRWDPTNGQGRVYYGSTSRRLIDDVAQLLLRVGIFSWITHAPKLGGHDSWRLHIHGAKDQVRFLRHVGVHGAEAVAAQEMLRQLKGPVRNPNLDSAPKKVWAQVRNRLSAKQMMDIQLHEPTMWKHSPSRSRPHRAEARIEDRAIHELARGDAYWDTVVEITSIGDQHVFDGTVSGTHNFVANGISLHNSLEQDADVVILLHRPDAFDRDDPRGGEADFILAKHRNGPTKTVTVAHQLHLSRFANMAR

[24] = cAMP pathway inhibition in counterscreen cell line – TR-FRET cAMP detection, counter-screen for MC4R biased antagonist project, dose response (AID 602305); format: functional, cell-based;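 further: U2OS cells stimulated with forskolin near its EC80 as the cAMP inducer; potency is for inhibition of forskolin-stimulated cAMP signaling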
[25] = biological target: T1, Sphingosine 1-phosphate receptor 4; test: Fluorescence dose response cell-based high throughput screening assay for antagonists of the Sphingosine 1-Phosphate Receptor 4 (S1P4). [Related pubchem assays: 1524 (Confirmation in triplicates.), 1510 (Primary screen.)]; format: functional
[26] = biological target: T7, Heat shock factor protein 1 (Mus musculus, UniProt P38532); test: enhancement of HSF1-driven luciferase signal – cell-based, NIH3T3, luminescence, dose retest, confirmation (AID 435004); format: functional;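 further: stress induced by proteasome inhibitor MG132 added 30 min after compound; luciferase reporter driven by HSF1 response element in NIH3T3 cells; actives raise luminescence as potentiators of the MG132 stress response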
T7 sequence (P38532 whole entry): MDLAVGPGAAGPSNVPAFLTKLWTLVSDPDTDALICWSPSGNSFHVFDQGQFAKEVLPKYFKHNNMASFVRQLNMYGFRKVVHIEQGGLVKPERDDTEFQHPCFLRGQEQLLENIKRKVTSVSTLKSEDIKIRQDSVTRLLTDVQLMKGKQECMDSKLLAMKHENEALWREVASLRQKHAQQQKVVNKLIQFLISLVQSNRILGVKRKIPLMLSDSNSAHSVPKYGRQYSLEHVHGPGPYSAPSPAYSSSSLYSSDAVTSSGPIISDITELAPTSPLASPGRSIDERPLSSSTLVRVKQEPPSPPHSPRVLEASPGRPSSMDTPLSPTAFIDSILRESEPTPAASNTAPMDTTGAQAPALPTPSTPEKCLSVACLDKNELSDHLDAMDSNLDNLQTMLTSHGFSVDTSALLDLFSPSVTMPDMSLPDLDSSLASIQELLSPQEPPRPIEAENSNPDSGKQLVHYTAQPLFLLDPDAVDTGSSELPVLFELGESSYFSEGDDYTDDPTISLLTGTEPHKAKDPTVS

[27] = reduced cellular PGC1a acetyl-lysine signal – cell-based, cherry-picked samples, dose response (AID 720514); format: functional;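 further: potency may reflect raised or lowered acetylation signal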
Protein RecA = biological target: T8, Protein RecA (Mycobacterium tuberculosis, UniProt P9WHJ3); test: Fluorescence Cell-Free Homogeneous Dose Retest to Identify Inhibitors of RecA-Intein Splicing Activity. [Related pubchem assays (depositor defined):AID2097, AID2223, AID489010, AID492950]; format: functional
T8 sequence (P9WHJ3 whole entry): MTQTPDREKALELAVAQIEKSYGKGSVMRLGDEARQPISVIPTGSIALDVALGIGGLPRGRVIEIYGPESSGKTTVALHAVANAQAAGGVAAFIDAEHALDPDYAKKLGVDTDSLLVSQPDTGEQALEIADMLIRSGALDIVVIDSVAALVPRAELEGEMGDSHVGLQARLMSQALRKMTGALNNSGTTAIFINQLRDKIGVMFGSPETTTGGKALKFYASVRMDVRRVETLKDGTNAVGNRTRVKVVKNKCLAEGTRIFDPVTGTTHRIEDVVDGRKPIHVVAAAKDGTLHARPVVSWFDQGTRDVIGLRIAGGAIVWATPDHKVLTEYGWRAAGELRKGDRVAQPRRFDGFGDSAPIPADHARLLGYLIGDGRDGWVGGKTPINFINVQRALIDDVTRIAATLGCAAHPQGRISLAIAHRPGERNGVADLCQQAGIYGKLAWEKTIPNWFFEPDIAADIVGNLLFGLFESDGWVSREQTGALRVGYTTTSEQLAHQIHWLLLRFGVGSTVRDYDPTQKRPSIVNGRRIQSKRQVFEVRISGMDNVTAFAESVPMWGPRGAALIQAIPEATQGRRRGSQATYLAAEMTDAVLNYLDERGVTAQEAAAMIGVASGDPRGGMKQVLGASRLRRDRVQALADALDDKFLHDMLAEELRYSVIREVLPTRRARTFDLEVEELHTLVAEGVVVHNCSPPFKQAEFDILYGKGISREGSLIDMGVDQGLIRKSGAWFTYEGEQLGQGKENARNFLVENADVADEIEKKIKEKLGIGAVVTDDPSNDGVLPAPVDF

Fatty acid synthase [28] = biological target: T5, Fatty acid synthase; test: inhibition of human FAS-TE enzyme activity – biochemical, endpoint fluorescence intensity, uHTS hits, dose response (AID 624327); format: functional;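 further: fluorescence from hydrolysis of an O-methyl fluorescein acyl ester substrate by the enzyme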

T3 sequence (P21453 whole entry): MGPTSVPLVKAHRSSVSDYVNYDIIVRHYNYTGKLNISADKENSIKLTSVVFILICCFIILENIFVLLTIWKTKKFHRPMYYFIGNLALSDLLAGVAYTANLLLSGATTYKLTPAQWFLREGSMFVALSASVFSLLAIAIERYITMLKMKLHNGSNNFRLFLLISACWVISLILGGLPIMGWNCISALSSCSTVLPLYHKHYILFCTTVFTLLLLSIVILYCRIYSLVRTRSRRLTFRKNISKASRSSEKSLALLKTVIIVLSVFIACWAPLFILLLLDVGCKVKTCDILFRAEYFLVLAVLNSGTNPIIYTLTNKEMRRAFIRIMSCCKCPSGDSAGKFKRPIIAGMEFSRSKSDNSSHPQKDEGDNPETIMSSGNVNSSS
T5 sequence (P49327 whole entry): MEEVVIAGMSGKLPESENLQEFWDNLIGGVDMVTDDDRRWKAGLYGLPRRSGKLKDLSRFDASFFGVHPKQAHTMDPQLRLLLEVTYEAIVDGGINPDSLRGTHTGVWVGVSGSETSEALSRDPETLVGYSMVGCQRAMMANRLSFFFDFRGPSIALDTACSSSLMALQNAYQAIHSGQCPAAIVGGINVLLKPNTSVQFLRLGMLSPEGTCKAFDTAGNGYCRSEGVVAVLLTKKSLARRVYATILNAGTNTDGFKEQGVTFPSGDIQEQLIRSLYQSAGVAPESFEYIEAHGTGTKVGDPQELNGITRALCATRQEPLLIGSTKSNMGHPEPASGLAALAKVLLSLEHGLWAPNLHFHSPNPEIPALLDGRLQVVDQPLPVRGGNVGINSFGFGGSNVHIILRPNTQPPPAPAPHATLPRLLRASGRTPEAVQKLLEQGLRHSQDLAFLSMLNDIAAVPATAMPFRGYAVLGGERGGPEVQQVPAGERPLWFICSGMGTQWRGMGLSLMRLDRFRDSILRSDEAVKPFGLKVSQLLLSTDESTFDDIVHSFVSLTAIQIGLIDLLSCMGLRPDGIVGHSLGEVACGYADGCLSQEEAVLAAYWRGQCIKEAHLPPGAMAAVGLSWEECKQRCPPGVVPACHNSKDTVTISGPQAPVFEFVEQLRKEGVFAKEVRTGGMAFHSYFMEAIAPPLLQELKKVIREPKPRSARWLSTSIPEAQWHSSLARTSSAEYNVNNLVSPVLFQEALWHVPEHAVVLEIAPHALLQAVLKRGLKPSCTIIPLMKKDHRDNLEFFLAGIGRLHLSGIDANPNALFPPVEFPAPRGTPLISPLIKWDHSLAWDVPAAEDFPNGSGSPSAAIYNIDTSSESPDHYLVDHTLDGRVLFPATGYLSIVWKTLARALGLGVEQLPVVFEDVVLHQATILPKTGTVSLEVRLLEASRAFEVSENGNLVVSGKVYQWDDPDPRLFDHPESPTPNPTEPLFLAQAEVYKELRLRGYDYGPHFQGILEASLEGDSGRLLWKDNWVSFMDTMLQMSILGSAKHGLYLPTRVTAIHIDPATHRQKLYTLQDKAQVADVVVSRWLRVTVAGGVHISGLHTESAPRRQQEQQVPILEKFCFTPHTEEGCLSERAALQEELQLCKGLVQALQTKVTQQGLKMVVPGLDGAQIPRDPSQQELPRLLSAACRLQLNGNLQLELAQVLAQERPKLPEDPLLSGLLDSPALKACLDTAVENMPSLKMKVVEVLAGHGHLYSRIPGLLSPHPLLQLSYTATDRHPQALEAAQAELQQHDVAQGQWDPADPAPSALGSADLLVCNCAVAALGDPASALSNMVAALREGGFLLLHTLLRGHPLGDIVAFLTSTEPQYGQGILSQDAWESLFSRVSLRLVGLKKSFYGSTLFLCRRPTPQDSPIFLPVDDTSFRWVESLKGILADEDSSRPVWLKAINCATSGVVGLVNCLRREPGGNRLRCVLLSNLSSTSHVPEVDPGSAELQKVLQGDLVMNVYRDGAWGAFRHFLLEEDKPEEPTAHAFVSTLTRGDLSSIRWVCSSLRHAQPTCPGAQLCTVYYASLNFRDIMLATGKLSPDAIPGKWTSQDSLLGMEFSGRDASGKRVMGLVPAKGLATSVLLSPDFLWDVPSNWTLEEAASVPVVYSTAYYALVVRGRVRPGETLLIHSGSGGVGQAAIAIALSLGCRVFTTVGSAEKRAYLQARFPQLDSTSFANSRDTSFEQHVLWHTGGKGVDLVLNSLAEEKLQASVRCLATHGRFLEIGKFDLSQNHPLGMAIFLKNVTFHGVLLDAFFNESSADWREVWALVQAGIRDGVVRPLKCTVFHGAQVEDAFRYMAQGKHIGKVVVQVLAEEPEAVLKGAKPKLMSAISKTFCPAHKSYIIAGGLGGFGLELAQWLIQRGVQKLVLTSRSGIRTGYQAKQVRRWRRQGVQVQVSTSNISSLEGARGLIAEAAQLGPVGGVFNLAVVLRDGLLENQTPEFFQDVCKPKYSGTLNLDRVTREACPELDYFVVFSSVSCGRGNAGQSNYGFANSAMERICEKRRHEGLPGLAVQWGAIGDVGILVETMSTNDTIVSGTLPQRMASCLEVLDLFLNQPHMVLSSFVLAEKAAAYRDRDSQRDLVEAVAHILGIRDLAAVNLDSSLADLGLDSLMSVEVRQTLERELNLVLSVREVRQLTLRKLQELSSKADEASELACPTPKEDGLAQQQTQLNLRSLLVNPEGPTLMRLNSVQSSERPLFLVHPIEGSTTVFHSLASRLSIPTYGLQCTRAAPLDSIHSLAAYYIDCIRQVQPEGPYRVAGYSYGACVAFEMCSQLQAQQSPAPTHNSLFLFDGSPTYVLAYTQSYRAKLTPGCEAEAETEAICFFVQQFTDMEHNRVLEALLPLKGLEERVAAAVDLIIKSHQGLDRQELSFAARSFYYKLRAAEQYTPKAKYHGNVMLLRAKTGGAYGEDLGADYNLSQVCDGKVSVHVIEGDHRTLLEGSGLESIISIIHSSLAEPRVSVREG
T2 sequence (O95136 whole entry): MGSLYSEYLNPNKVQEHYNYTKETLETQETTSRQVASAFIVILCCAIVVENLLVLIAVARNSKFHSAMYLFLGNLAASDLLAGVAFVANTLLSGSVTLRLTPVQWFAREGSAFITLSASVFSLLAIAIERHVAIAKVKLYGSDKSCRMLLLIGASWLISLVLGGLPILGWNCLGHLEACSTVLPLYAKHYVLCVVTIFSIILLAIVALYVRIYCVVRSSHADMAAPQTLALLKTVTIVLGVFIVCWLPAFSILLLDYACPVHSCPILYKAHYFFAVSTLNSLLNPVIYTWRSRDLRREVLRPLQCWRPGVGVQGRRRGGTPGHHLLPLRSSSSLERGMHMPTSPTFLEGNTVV
T4 sequence (Q99500 whole entry): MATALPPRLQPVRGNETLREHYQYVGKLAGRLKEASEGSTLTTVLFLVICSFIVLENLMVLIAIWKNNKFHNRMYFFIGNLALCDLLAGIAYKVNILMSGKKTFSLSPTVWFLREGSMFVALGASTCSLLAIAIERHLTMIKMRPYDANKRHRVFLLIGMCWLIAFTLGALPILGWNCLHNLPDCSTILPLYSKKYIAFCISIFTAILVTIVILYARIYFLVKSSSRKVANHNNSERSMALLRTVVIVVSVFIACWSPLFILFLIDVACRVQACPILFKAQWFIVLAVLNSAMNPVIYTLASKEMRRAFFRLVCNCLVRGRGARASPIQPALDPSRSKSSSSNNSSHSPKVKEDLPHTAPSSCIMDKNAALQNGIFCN
Sequence of Sphingosine 1-phosphate receptor 5 (Q9H228 whole entry): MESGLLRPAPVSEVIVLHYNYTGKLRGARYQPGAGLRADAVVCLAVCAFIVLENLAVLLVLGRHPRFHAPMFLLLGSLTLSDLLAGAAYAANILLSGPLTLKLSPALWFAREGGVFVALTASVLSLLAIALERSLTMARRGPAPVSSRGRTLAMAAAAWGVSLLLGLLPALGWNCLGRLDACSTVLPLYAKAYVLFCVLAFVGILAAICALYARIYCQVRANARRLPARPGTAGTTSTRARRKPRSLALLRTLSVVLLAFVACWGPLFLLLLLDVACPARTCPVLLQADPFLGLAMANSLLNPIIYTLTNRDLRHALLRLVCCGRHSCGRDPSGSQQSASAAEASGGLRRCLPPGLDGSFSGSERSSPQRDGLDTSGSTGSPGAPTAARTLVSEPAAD
Sequence of Melanocortin receptor 4 (P32245 whole entry): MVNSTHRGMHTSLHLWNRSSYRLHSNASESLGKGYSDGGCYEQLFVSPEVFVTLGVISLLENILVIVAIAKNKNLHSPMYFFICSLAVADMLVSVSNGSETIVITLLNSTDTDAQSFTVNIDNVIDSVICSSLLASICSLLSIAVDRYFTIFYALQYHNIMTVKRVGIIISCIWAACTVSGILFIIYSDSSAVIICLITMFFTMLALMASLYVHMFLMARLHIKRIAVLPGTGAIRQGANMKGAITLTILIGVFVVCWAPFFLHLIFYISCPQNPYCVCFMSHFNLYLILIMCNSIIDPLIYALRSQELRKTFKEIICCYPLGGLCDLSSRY

SMILES: COCC/N=C1\S/C(=C\c2cc(C)n(-c3ccc(F)cc3F)c2C)C(=O)N1C
- EC50 [1]: > 3.3 µM (inactive)
- EC50 [2]: > 25 µM (inactive)
- IC50 [3]: > 25 µM (inactive)
- IC50 [4]: > 25 µM (inactive)
- EC50 [5]: 0.0154 µM (active)
- EC50 [6]: > 25 µM (inactive)
- EC50 [7]: > 3.3 µM (inactive)
- EC50 [8]: 0.04 µM (active)
- IC50 [9]: 6.76 µM (active)
- CC50 [10]: > 10 µM (inactive)
- IC50 [11]: > 25 µM (inactive)
- EC50 [12]: 0.173 µM (active)
- EC50 [13]: > 3.3 µM (inactive)
- EC50 [14]: > 3.3 µM (inactive)
- IC50 [15]: ~8.9 µM (active)
- EC50 [16]: > 25 µM (inactive)

SMILES: Cc1ccccc1CS(=O)(=O)c1nnc([C@H](CC(C)C)NC(=O)OC(C)(C)C)o1
- EC50 [17]: 8.56 µM (active)
- EC50 [18]: 11.9 µM (active)
- IC50 [19]: 38.9 µM (not active)
- IC50 (Fatty acid synthase [20]): 7.36 µM (active)
- IC50 [21]: 0.632 µM (active)
- IC50 [22]: 2.89 µM (not active)
- IC50 (Melanocortin receptor 4): > 64.6 µM (inactive)
- AC50 [23]: 93.7 µM (active)
- IC50 [24]: > 64.6 µM (inactive)
- IC50 [25]: 1.2 µM (active)
- EC50 [26]: > 260 µM (inactive)
- AC50 [27]: 16 µM (active)
- EC50 (Protein RecA): 11.6 µM (active)
- IC50 (Fatty acid synthase [28]): 12.3 µM (active)
